Test system: fibula fracture region
Assay: Acceleration of fracture healing in normal rats, Compound (2) microspheres (Experimental Example 2)
Format: in vivo, rat
Conditions: Example 7 microspheres; for Fibula Bone Mineral Content / Fibula Bone Volume / Fibula Bone Mineral Density: 2 weeks after suturing; for Fibula Bone Mineral Density: DXA at fracture region; for Breaking Energy: 4 weeks after suturing, three-point bending test
Procedure: CD (SD) IGS rats (Charles River Japan, Inc.; male; 7-week-old) were housed for seven days at room temperature (23±2° C.) and 50±20% humidity. During the housing period, the rats were free to access commercially available food (from Oriental Bio; CE-2).
Under ether anesthesia, the left-lower legs of rats were shaved and sterilized with 70% aqueous ethanol; fibulas were exposed with scissors and cut with nail scissors (Natsume Seisakusyo; B17). The cut sections of the fibula were re-matched with tweezers. For the test groups (15 rats/group), the drug-containing microspheres prepared in Example 7, which contains 0.004, 0.02, 0.1 or 0.5 mg of Compound (2), were placed around the cutting site using spatula followed by suturing with silk thread. For the control group (15 rats/group), the same amount of drug-free microspheres prepared in Control Example 2 were placed around the cutting site using spatula followed by suturing with silk thread. Following the suturing, every animal was sterilized with 70% aqueous ethanol. Five rats at two weeks later and 10 rats at four weeks later were taken from each group and sacrificed by laparotomy with bleeding under ether anesthesia and the fibulas were excised.
The fibula excised at 2 weeks after suturing was subjected to DXA bone densitometer (from Aloka; DCS-600) to determine bone mineral density and bone mineral content at fracture region (scanning width: 1 mm).
The volume of fibula excised at 2 weeks after suturing was determined using Plethysmometer (Muromachi Kikai Co., Ltd.; TK-101).
The fibula excised at 4 weeks after suturing was subjected to a three-point bending test with bone strength tester (from Muromachi Kikai Co., Ltd.; TK-252C) to determine bone strength. Briefly, the fibula was supported by two supports apart from each other by 8 mm and the cut section was positioned at the middle of these supports, i.e., 4 mm apart from the respective two supports. Loading (3 mm/minute) from upper direction was kept on the middle point (fracture section) of fibula until fibula begins to fracture. The breaking force […] spent to break the bone was defined as the breaking energy.

CCOc1cc2cc(CO)c(CO)c(-c3ccnc(-n4nc(-c5cccnc5)c5ccccc5c4=O)c3)c2cc1OCC [Compound (2)]
Fibula Bone Mineral Content (drug content 0.004 mg): 15.90 ± 1.88 mg
Fibula Bone Volume (drug content 0.004 mg): 85.0 ± 8.14 µL
Fibula Bone Mineral Density (drug content 0.004 mg): 46.18 ± 3.18 mg/cm^2
Breaking Energy (drug content 0.004 mg): 2.66 ± 0.49 mJ
Fibula Bone Mineral Content (drug content 0.02 mg): 19.86 ± 1.75 mg
Fibula Bone Volume (drug content 0.02 mg): 97.6 ± 4.99 µL
Fibula Bone Mineral Density (drug content 0.02 mg): 50.72 ± 2.68 mg/cm^2
Breaking Energy (drug content 0.02 mg): 2.59 ± 0.55 mJ
Fibula Bone Mineral Content (drug content 0.1 mg): 23.10 ± 2.72 mg
Fibula Bone Volume (drug content 0.1 mg): 121.6 ± 13.76 µL
Fibula Bone Mineral Density (drug content 0.1 mg): 56.06 ± 4.19 mg/cm^2
Breaking Energy (drug content 0.1 mg): 3.15 ± 0.54 mJ
Fibula Bone Mineral Content (drug content 0.5 mg): 23.24 ± 2.97 mg
Fibula Bone Volume (drug content 0.5 mg): 132.2 ± 11.72 µL
Fibula Bone Mineral Density (drug content 0.5 mg): 52.18 ± 4.36 mg/cm^2
Breaking Energy (drug content 0.5 mg): 3.27 ± 0.61 mJ

Source: patent publication US7659273B2, “Composition for accelerating bone fracture healing” (Mitsubishi Tanabe Pharma Corporation, priority 2001, dated 2010)
